We go through 10 compounds from article PMC3353862.

Test [1] deals with E. coli tolC mutants. As to conditions: cited from earlier work.
In test [2] the test system is H. influenzae. Conditions: Haemophilus influenzae; cited from earlier work.
The test system of test [3] is S. pneumoniae. As to conditions: cited from earlier work.
For test [4], the system named is bacterial protein synthesis (aminoacylation/translation system). Put plainly: aminoacylation/translation (A/T) assay. Type of test: biochemical.
For test [5], the system named is M. catarrhalis. As to conditions: Moraxella. catarrhalis; cited from earlier work.
The subject of test [6] is S. aureus. Conditions: cited from earlier work.
Test [7] has as its system E. coli modified with PMBN. Conditions: cited from earlier work.
The subject of test [8] is E. faecalis. As to conditions: cited from earlier work.
The next test has as its system panel of bacteria. Description: Antibacterial activity against the panel of bacteria (MIC, overall). On MIC (antibacterial activity grade): key: +: poor; ++: moderate; +++: good antibacterial activity. As to conditions: for antibacterial activity: panel of bacteria. Type of test: cell-based.
The subject of test [9] is E. coli tolC mutants. Description: Broth microdilution MIC testing. Type of test: cell-based, Escherichia coli. Conditions: for MIC: Escherichia coli, read-out: MIC E. coli tolC; for MIC E. coli tolC: E. coli tolC mutants.
Test [10] concerns S. aureus. Put plainly: Broth microdilution MIC testing. Type of test: cell-based, Staphylococcus aureus. As to conditions: for MIC: Staphylococcus aureus, read-out: MIC S. aureus.
Test [11] has as its system M. catarrhalis. Put plainly: Broth microdilution MIC testing. Type of test: cell-based, Moraxella catarrhalis. Conditions: for MIC: Moraxella catarrhalis. On the technique in general: Broth dilution looks for growth in wells or tubes with falling amounts of substance.
Test [12] concerns S. pneumoniae. Put plainly: Broth microdilution MIC testing. Type of test: cell-based, Streptococcus pneumoniae. Conditions: for MIC: Streptococcus pneumoniae, read-out: MIC S. pneumo; for MIC S. pneumo: S. pneumoniae.
For test [13], the system named is H. influenzae. Description: Broth microdilution MIC testing. As to conditions: for MIC: Haemophilus influenzae, read-out: MIC H. flu; for MIC H. flu: H. influenzae. Type of test: cell-based, Haemophilus influenzae.
Test [14] has as its system E. faecalis. Description: Broth microdilution MIC testing. Type of test: cell-based, Enterococcus faecalis. As to conditions: for MIC: Enterococcus faecalis, read-out: MIC E. fae; for MIC E. fae: E. faecalis.
Test [15] relates to E. coli modified with PMBN. Put plainly: Broth microdilution MIC testing. As to conditions: for MIC: Escherichia coli, read-out: MIC E. coli +PMBP; for MIC E. coli +PMBP: E. coli modified with PMBN. Type of test: cell-based, Escherichia coli.
Setting [16] is: original hits retested, read-out: IC50 (retested in the A/T assay).
Where [17] appears, read: A/T assay, Table 1, read-out: IC50.

In brackets after ≈: the same amount, converted by molar mass. Read-outs that look alike come from different tables or passages of the source.

For `Oc1nc(-c2ccccn2)nc2c1CN(Cc1cccc(F)c1)CC2` [Compound 321525], the MIC with E. coli tolC mutants [1] is 8 µg/mL (≈ 23.8 µM); in the test with H. influenzae [2] it was 4 µg/mL (≈ 11.9 µM); in the test with S. pneumoniae [3], 8 µg/mL (≈ 23.8 µM); in the test with M. catarrhalis [5], 0.25 µg/mL (≈ 0.743 µM); in the test on S. aureus [6], 32 µg/mL (≈ 95.1 µM); in [7], 32 µg/mL (≈ 95.1 µM). Further, the MIC in the test on E. faecalis [8] is 32 µg/mL (≈ 95.1 µM). Besides, in test [4] (setting [16]), the IC50 was determined as 2800 nM.
Consider `COc1cccc(CN2CCc3nc(-c4ccccn4)nc(O)c3C2)c1` [Compound 321528], for which the MIC in the test with E. coli tolC mutants [1] was 128 µg/mL (≈ 367 µM); with H. influenzae [2] it was 8 µg/mL (≈ 23 µM); with S. pneumoniae [3], 32 µg/mL (≈ 91.8 µM); in the test on M. catarrhalis [5] it was 2 µg/mL (≈ 5.74 µM); in the test with S. aureus [6] it was more than 128 µg/mL; in test [7], 32 µg/mL (≈ 91.8 µM). The MIC with E. faecalis [8] was 128 µg/mL (≈ 367 µM). For the same compound, in [4] (setting [16]), the IC50 worked out at 1200 nM.
Regarding `Cc1nc(-c2nc3c(c(=O)[nH]2)CN(Cc2ccc(Cl)cc2)CC3)cs1` [Compound 323356], in the test with panel of bacteria, the “antibacterial activity” value is recorded as “slight antibacterial activity”. Also, the MIC in the test with E. coli tolC mutants [9] is 128 µg/mL (≈ 343 µM); with S. aureus [10], more than 128 µg/mL; against M. catarrhalis [11], 8 µg/mL (≈ 21.5 µM); in the test with S. pneumoniae [12], 128 µg/mL (≈ 343 µM); in the test on H. influenzae [13] it was 64 µg/mL (≈ 172 µM); in the test on E. faecalis [14], 128 µg/mL (≈ 343 µM). Moreover, in test [15], the MIC is more than 128 µg/mL. Besides, in test [4], the “biochemical activity in the A/T assay” value is “abolished all biochemical activity”. Moreover, the IC50 in test [4] (setting [17]) is more than 300000 nM.
Regarding `CC(C)Oc1ccc(CN2CCc3nc(-c4ccccn4)[nH]c(=O)c3C2)cc1` [Compound 323365], the “MIC (antibacterial activity grade)” value against panel of bacteria (Table 3) is “+++”. In addition, in the test with E. coli tolC mutants [9], the “MIC E. coli tolC” value was determined as 4 µg/mL (≈ 10.6 µM). Further, in [4] (setting [17]), the IC50 came out at 2270 nM. In addition, the “MIC S. aureus” value against S. aureus [10] stood at 8 µg/mL (≈ 21.3 µM). Also, the “MIC M. cat” value with M. catarrhalis [11] is not above 0.12 µg/mL. Further, in the test with S. pneumoniae [12], the “MIC S. pneumo” value amounted to 4 µg/mL (≈ 10.6 µM). Besides, the “MIC H. flu” value with H. influenzae [13] was found to be 4 µg/mL (≈ 10.6 µM). The “MIC E. fae” value with E. faecalis [14] came out at 16 µg/mL (≈ 42.5 µM). In test [15], the “MIC E. coli +PMBP” value amounted to 4 µg/mL (≈ 10.6 µM).
For the compound `CC(C)(C)Oc1ccc(CN2CCc3nc(-c4ccccn4)[nH]c(=O)c3C2)cc1` [Compound 323366], in the test on panel of bacteria (Table 3), the “MIC (antibacterial activity grade)” value was “+++”. Further, the “MIC E. coli tolC” value in the test on E. coli tolC mutants [9] worked out at 4 µg/mL (≈ 10.2 µM). Moreover, in test [4] (setting [17]), the IC50 is 2470 nM. In addition, the “MIC S. aureus” value against S. aureus [10] worked out at 8 µg/mL (≈ 20.5 µM). For the same compound, the “MIC M. cat” value with M. catarrhalis [11] is not above 0.12 µg/mL. Also, the “MIC S. pneumo” value against S. pneumoniae [12] amounted to 2 µg/mL (≈ 5.12 µM). Also, the “MIC H. flu” value against H. influenzae [13] is 4 µg/mL (≈ 10.2 µM). Moreover, the “MIC E. fae” value with E. faecalis [14] was 8 µg/mL (≈ 20.5 µM). For the same compound, the “MIC E. coli +PMBP” value in test [15] stood at 2 µg/mL (≈ 5.12 µM).
Consider `O=c1[nH]c(-c2ccccn2)nc2c1CN(Cc1cccc(Br)c1Br)CC2` [Compound 323367], for which the “MIC (antibacterial activity grade)” value in the test with panel of bacteria (Table 3) is recorded as “+++”. In addition, in the test with E. coli tolC mutants [9], the “MIC E. coli tolC” value amounted to 2 µg/mL (≈ 4.2 µM). The IC50 in test [4] (setting [17]) amounted to 1890 nM. In addition, in the test on S. aureus [10], the “MIC S. aureus” value worked out at 8 µg/mL (≈ 16.8 µM). The “MIC M. cat” value against M. catarrhalis [11] is not above 0.12 µg/mL. The “MIC S. pneumo” value with S. pneumoniae [12] was 2 µg/mL (≈ 4.2 µM). Also, the “MIC H. flu” value with H. influenzae [13] was 1 µg/mL (≈ 2.1 µM). Further, in the test with E. faecalis [14], the “MIC E. fae” value came to 4 µg/mL (≈ 8.4 µM). For the same compound, in test [15], the “MIC E. coli +PMBP” value stood at 8 µg/mL (≈ 16.8 µM).
For `O=C(Nc1ccc(Cl)cc1)N1CCc2nc(-c3ccccn3)[nH]c(=O)c2C1` [Compound 323368], the “antibacterial activity” value in the test on panel of bacteria is “complete loss of antibacterial activity”. Besides, the MIC in the test with E. coli tolC mutants [9], in the test on S. aureus [10], with M. catarrhalis [11], with S. pneumoniae [12], with H. influenzae [13] and with E. faecalis [14] was more than 128 µg/mL each time. The MIC in test [15] is more than 128 µg/mL. Besides, the IC50 in [4] (setting [17]) was determined as 470 nM.
For the compound `O=c1[nH]c(-c2ccccn2)nc2c1CN(CCc1ccc(Cl)cc1)CC2` [Compound 323370], in the test with panel of bacteria (Table 2), the “MIC (antibacterial activity grade)” value is “+++”. Besides, the MIC in the test with E. coli tolC mutants [9] was 8 µg/mL (≈ 21.8 µM); with S. aureus [10], 16 µg/mL (≈ 43.6 µM); in the test on M. catarrhalis [11], not above 0.12 µg/mL; in the test with S. pneumoniae [12], 4 µg/mL (≈ 10.9 µM); with H. influenzae [13] it was 2 µg/mL (≈ 5.45 µM); with E. faecalis [14], 16 µg/mL (≈ 43.6 µM). The MIC in test [15] came to 8 µg/mL (≈ 21.8 µM). In addition, the IC50 in test [4] (setting [17]) turned out to be 280 nM.
Turning to `CC1CN(Cc2ccc(Cl)cc2)Cc2c1nc(-c1ccccn1)[nH]c2=O` (centres unmarked) [Compound 332054], the “MIC (antibacterial activity grade)” value against panel of bacteria (Table 3) was “+++”. Moreover, the MIC was 2 µg/mL (≈ 5.45 µM) in the test with E. coli tolC mutants [9]; 4 µg/mL (≈ 10.9 µM) in the test on S. aureus [10]; not above 0.12 µg/mL against M. catarrhalis [11]; 2 µg/mL (≈ 5.45 µM) in the test on S. pneumoniae [12]; 1 µg/mL (≈ 2.73 µM) in the test with H. influenzae [13]; 8 µg/mL (≈ 21.8 µM) with E. faecalis [14]. Also, the MIC in [15] came out at 1 µg/mL (≈ 2.73 µM). Further, the IC50 in test [4] (setting [17]) came to 7400 nM.
For `O=c1[nH]c(-c2ccccn2)nc2c1CCN(Cc1ccc(Cl)cc1)CC2` [Compound 332058], the “MIC (antibacterial activity grade)” value in the test with panel of bacteria (Table 2) was “+++”. The MIC in the test on E. coli tolC mutants [9] was 4 µg/mL (≈ 10.9 µM); in the test with S. aureus [10] it was 16 µg/mL (≈ 43.6 µM); with M. catarrhalis [11] it was not above 0.12 µg/mL; in the test with S. pneumoniae [12] it was 2 µg/mL (≈ 5.45 µM); in the test with H. influenzae [13], 0.5 µg/mL (≈ 1.36 µM); in the test on E. faecalis [14], 16 µg/mL (≈ 43.6 µM). In addition, in [15], the MIC stood at 4 µg/mL (≈ 10.9 µM). The IC50 in test [4] (setting [17]) stood at 560 nM.
